The source of these data is patent US11253499B2, “Compounds” (priority 2017, dated 2022).

The subject of assay [1] is M. tuberculosis H37Rv-GFP. The format is cell-based, Mycobacterium tuberculosis. The conditions noted are these: read-out: EC50_H37Rv.
For assay [2], the system named is Mycobacterium tuberculosis H37Rv in human macrophages THP-1.
Protocol: Mycobacterium tuberculosis In Vitro H37Rv in Human Macrophaqes THP-1 Inhibition Assay (Intracellular Assay)
Procedure was carried out as described in Sorrentino, F. et al. (2016) Antimicrob. Agents Chemother. 60 (1), 640-645 (supplemental material), except that before THP-1 infected cells were seeded in 384 well plates, infected macrophages were filtered in the last step of wash steps with a 40 um cell strainer to remove cell clumps and obtain single cell suspension.
The compounds of the examples were tested essentially in accordance with the above-mentioned assay (without the presence of ethionamide).

For `O=C(CCC(F)(F)F)N1CC(c2cccc(C(F)(F)F)c2)C1` [Example 2, 4,4,4-trifluoro-1-[3-[3-(trifluoromethyl)phenyl]azetidin-1-yl]butan-1-one], the EC50 in assay [1] is under 0.05 µM. Further, the IC50 in assay [2] is under 0.05 µM.

With `O=C(CCCC(F)(F)F)N1CC(c2ccc(F)cc2)C1` [Example 3, 5,5,5-trifluoro-1-[3-(4-fluorophenyl)azetidin-1-yl]pentan-1-one], in assay [1], the EC50 was under 0.05 µM. This molecule also returned a concentration for half-maximal inhibition (IC50) in assay [2] of 0.05 to 0.25 µM.

As for `O=C(CCC(F)(F)F)N1CC(C2CC2)C1` [Example 4, 1-(3-cyclopropylazetidin-1-yl)-4,4,4-trifluoro-butan-1-one], the EC50 in assay [1] is 0.25 to 0.5 µM. The molecule further had an IC50 in assay [2] of 0.05 to 0.25 µM.

For `O=C(CCC(F)(F)F)N1CC(c2cc(C(F)(F)F)ccn2)C1` [Example 7, 4,4,4-trifluoro-1-[3-[4-(trifluoromethyl)-2-pyridyl]azetidin-1-yl]butan-1-one], in assay [1], the EC50 was in the range of 0.05 to 0.25 µM. This molecule showed an IC50 in assay [2] of 0.05 to 0.25 µM.

As to `O=C(CCC(F)(F)F)N1CC(c2ccc(C(F)(F)F)cn2)C1` [Example 8, 4,4,4-trifluoro-1-[3-[5-(trifluoromethyl)-2-pyridyl]azetidin-1-yl]butan-1-one], the EC50 in assay [1] was in the range of 0.25 to 0.5 µM. For the same molecule, in assay [2], the IC50 lay within 1 to 10 µM.

In the case of `O=C(CCC(F)(F)F)N1CC(c2ccc(F)cn2)C1` [Example 9, 4,4,4-trifluoro-1-[3-(5-fluoro-2-pyridyl)azetidin-1-yl]butan-1-one], the EC50 in assay [1] lay in the range of 0.05 to 0.25 µM. This molecule displayed an IC50 in assay [2] of 0.05 to 0.25 µM.

Regarding `O=C(CCC(F)(F)F)N1CC(c2cc(Cl)ccn2)C1` [Example 11, 1-[3-(4-chloro-2-pyridyl)azetidin-1-yl]-4,4,4-trifluoro-butan-1-one], the EC50 in assay [1] was in the range of 0.05 to 0.25 µM. The IC50 in assay [2] fell in the range of 0.05 to 0.25 µM.

With `O=C(CCC(F)(F)F)N1CC(c2ccnc(C(F)(F)F)c2)C1` [Example 12, 4,4,4-trifluoro-1-[3-[2-(trifluoromethyl)-4-pyridyl]azetidin-1-yl]butan-1-one], in assay [1], the EC50 is 0.25 to 0.5 µM. Further, the IC50 in assay [2] is 0.05 to 0.25 µM.

For the molecule `O=C(CCC(F)(F)F)N1CC(c2ccc(Cl)cc2)C1` [Example 13, 1-[3-(4-chlorophenyl)azetidin-1-yl]-4,4,4-trifluoro-butan-1-one], in assay [1], the EC50 is under 0.05 µM. Further, the IC50 in assay [2] lay in the range of 0.05 to 0.25 µM.

In the case of `O=C(CCC(F)(F)F)N1CC(c2ccc(OC(F)(F)F)cc2)C1` [Example 14, 4,4,4-trifluoro-1-[3-[4-(trifluoromethoxy)phenyl]azetidin-1-yl]butan-1-one], in assay [1], the EC50 is under 0.05 µM. Further, the IC50 in assay [2] fell in the range of 0.25 to 0.5 µM.

In the case of `O=C(CCC(F)(F)F)N1CC(c2cccc(OC(F)(F)F)c2)C1` [Example 15, 4,4,4-trifluoro-1-[3-[3-(trifluoromethoxy)phenyl]azetidin-1-yl]butan-1-one], the EC50 in assay [1] was under 0.05 µM. The IC50 in assay [2] is under 0.05 µM.

`O=C(CCC(F)(F)F)N1CC(c2ccc(C(F)(F)F)cc2)C1` [Example 16]: the EC50 in assay [1] lay in the range of 0.05 to 0.25 µM. The IC50 in assay [2] lay within 0.25 to 0.5 µM.

Turning to `O=C(CCC(F)(F)F)N1CC(c2cccc(Cl)c2)C1` [Example 17, 1-[3-(3-chlorophenyl)azetidin-1-yl]-4,4,4-trifluoro-butan-1-one], in assay [1], the EC50 was under 0.05 µM. The molecule also registered an IC50 in assay [2] of under 0.05 µM.

Consider `O=C(CCC(F)(F)F)N1CC(c2ccc(F)cc2F)C1` [Example 18, 1-[3-(2,4-difluorophenyl)azetidin-1-yl]-4,4,4-trifluoro-butan-1-one], for which the EC50 in assay [1] is under 0.05 µM. For the same molecule, the 50% inhibitory concentration (IC50) in assay [2] was under 0.05 µM.

With `O=C(CCC(F)(F)F)N1CC(c2ccc(Cl)nc2)C1` [Example 19], the EC50 in assay [1] was in the range of 0.25 to 0.5 µM. The IC50 in assay [2] fell in the range of 0.05 to 0.25 µM.

As for `O=C(CCC(F)(F)F)N1CC(c2ccc(F)cc2Cl)C1` [Example 20, 1-[3-(2-chloro-4-fluoro-phenyl)azetidin-1-yl]-4,4,4-trifluoro-butan-1-one], the EC50 in assay [1] was 0.05 to 0.25 µM. In assay [2], the IC50 fell in the range of 0.05 to 0.25 µM.

Take `O=C(CCC(F)(F)F)N1CC(c2ccc(C(F)(F)F)nc2)C1` [Example 21, 4,4,4-trifluoro-1-[3-[6-(trifluoromethyl)-3-pyridyl]azetidin-1-yl]butan-1-one]: the EC50 in assay [1] is 1 to 10 µM. This molecule also showed an IC50 in assay [2] of 0.25 to 0.5 µM.

As to `O=C(CCC(F)(F)F)N1CC(c2cncc(Cl)c2)C1` [Example 23, 1-[3-(5-chloro-3-pyridyl)azetidin-1-yl]-4,4,4-trifluoro-butan-1-one], in assay [1], the EC50 was 0.25 to 0.5 µM. The molecule further displayed an IC50 in assay [2] of under 0.05 µM.

As for `O=C(CCC(F)(F)F)N1CC(c2ccc(F)cc2C(F)(F)F)C1` [Example 25, 4,4,4-trifluoro-1-[3-[4-fluoro-2-(trifluoromethyl)phenyl]azetidin-1-yl]butan-1-one], the EC50 in assay [1] lay within 0.05 to 0.25 µM. The IC50 in assay [2] is 0.05 to 0.25 µM.

`O=C(CCC(F)(F)F)N1CC(c2cccnc2)C1` [Example 26, 4,4,4-trifluoro-1-[3-(3-pyridyl)azetidin-1-yl]butan-1-one]: the EC50 in assay [1] lay in the range of 1 to 10 µM. Further, the IC50 in assay [2] fell in the range of 1 to 10 µM.

For `Cc1cc(F)ccc1C1CN(C(=O)CCC(F)(F)F)C1` [Example 28, 4,4,4-trifluoro-1-[3-(4-fluoro-2-methyl-phenyl)azetidin-1-yl]butan-1-one], the EC50 in assay [1] fell in the range of 0.05 to 0.25 µM. The same molecule displayed an IC50 in assay [2] of 0.05 to 0.25 µM.

As to `O=C(CCC(F)(F)F)N1CC(c2cccc(F)c2)C1` [Example 29, 4,4,4-trifluoro-1-[3-(3-fluorophenyl)azetidin-1-yl]butan-1-one], the EC50 in assay [1] is under 0.05 µM. Further, the IC50 in assay [2] is under 0.05 µM.

Take `O=C(CCC(F)(F)F)N1CC(c2cc(F)c(F)c(F)c2)C1` [Example 34, 4,4,4-trifluoro-1-[3-(3,4,5-trifluorophenyl)azetidin-1-yl]butan-1-one]: the EC50 in assay [1] was under 0.05 µM. This molecule had an IC50 in assay [2] of 0.05 to 0.25 µM.

As for `O=C(CCC(F)(F)F)N1CC(C2CCOCC2)C1` [Example 38, 4,4,4-trifluoro-1-(3-(tetrahydro-2H-pyran-4-yl)azetidin-1-yl)butan-1-one], in assay [1], the EC50 was 0.25 to 0.5 µM. In assay [2], this molecule yielded an IC50 of 0.05 to 0.25 µM.

With `COC1(c2ccc(F)cc2)CN(C(=O)CCC(F)(F)F)C1` [Example 41, 4,4,4-trifluoro-1-(3-(4-fluorophenyl)-3-methoxyazetidin-1-yl)butan-1-one], the EC50 in assay [1] was under 0.05 µM. This molecule yielded an IC50 in assay [2] of under 0.05 µM.

As for `CC1(c2ccc(F)cc2)CN(C(=O)CCC(F)(F)F)C1` [Example 42, 4,4,4-trifluoro-1-(3-(4-fluorophenyl)-3-methylazetidin-1-yl)butan-1-one], the EC50 in assay [1] is under 0.05 µM. This molecule gave an IC50 in assay [2] of under 0.05 µM.
